Patent publication US20130059879A1, “Small Molecule Inhibitors of PFKFB3 and Glycolytic Flux and Their Methods of Use as Anti-Cancer Therapeutics” (UNIVERSITY OF LOUISVILLE RESEARCH FOUNDATION, INC., priority 2010, published 2013)

System: U937
Test: Cancer cell proliferation, Alamar Blue assay, 72 hours
Assay type: cell-based
Conditions: Homo sapiens, U-937
Protocol: (§1) The ability of the compounds described herein to kill or inhibit the proliferation of cancer cells was measured using either the MTT assay, or the Alamar Blue assay, or the Cell Titer Glow® assay using 48 or 72 hours exposure. […] The procedures are briefly described below. Cells of the desired tumor cell line were plated at 2×10^5 cells/ml in 96 well plates. Twice the indicated concentrations of the compounds of the invention were added to cells the following day in an equal volume of media. 72 hours later, cells were lysed and subjected to ATP determination using the CellTiter Glo-Luminescent Cell Viability Assay kit (Promega, Madison, Wis.). Experiments were done in triplicate. When using the MTT assay or the Alamar blue assay, the experimental conditions are essentially similar; at the end of the incubation period, 20 microliters of the MTT solution is added per well and the samples are incubated for an additional four hours, rinsed, and the absorbance at 570 nm measured. […] Table 2 lists the IC50 values for the compounds of the invention in several cell lines including Jurkat, Calu-6, NCI-H82, U937, HCT-116, and MDA-MB-231 cancer cell lines.

SMILES | IC50 [µM]
Cc1cc2[nH]c(C(=O)c3ccccc3)cc2c2ccccc12 [ACT-PFK-101, (5-Methyl-3H-benzo[e]indol-2-yl)-phenyl-methanone] | > 100
O=C(c1ccccc1)c1cc2c(ccc3cccnc32)[nH]1 [ACT-PFK-102, Phenyl-(7H-pyrrolo[2,3-h]quinolin-8-yl)-methanone] | > 100
O=C(c1cc[n+]([O-])cc1)c1cc2c(ccc3ccccc32)[nH]1 [ACT-PFK-106, (3H-benzo[e]indol-2-yl)-(1-oxy-pyridin-4-yl)-methanone] | 3.15
COC(=O)c1cc(C(=O)c2cc3c(ccc4ccccc43)[nH]2)ccc1OCc1ccccc1 [ACT-PFK-113, 5-(3H-Benzo[e]indole-2-carbonyl)-2-benzyloxy-benzoic acid methyl ester] | 26.8
O=C(c1ccc(OCc2ccccc2)c(C(=O)O)c1)c1cc2c(ccc3ccccc32)[nH]1 [ACT-PFK-114, 5-(3H-Benzo[e]indole-2-carbonyl)-2-benzyloxy-benzoic acidmethanone] | > 100

Now from value to molecule:

IC50 [µM] | SMILES
> 100 | COC(=O)c1ccc(C(=O)c2cc3c(ccc4ccccc43)[nH]2)cc1 [ACT-PFK-110, 4-(3H-Benzo[e]indole-2-carbonyl)-benzoic acid methyl ester]
57.2 | O=C(O)c1ccc(C(=O)c2cc3c(ccc4ccccc43)[nH]2)cc1 [ACT-PFK-111, 4-(3H-Benzo[e]indole-2-carbonyl)-benzoic acid]

System: MDA-MB-231
Test: as above
Assay type: cell-based
Conditions: Homo sapiens
Protocol: as §1

SMILES | IC50 [µM]
O=C(c1cc[n+]([O-])cc1)c1cc2c(ccc3ccccc32)[nH]1 [ACT-PFK-106, (3H-benzo[e]indol-2-yl)-(1-oxy-pyridin-4-yl)-methanone] | 28
COC(=O)c1cc(C(=O)c2cc3c(ccc4ccccc43)[nH]2)ccc1OCc1ccccc1 [ACT-PFK-113, 5-(3H-Benzo[e]indole-2-carbonyl)-2-benzyloxy-benzoic acid methyl ester] | > 100
O=C(c1ccc(OCc2ccccc2)c(C(=O)O)c1)c1cc2c(ccc3ccccc32)[nH]1 [ACT-PFK-114, 5-(3H-Benzo[e]indole-2-carbonyl)-2-benzyloxy-benzoic acidmethanone] | > 100

Continued, values first:

IC50 [µM] | SMILES
6.4 | O=C(c1cccc(O)c1)c1cc2c(ccc3ccccc32)[nH]1 [ACT-PFK-103, (3H-Benzo[e]indol-2-yl)-(3-hydroxy-phenyl)-methanone]
> 100 | COC(=O)c1ccc(C(=O)c2cc3c(ccc4ccccc43)[nH]2)cc1 [ACT-PFK-110, 4-(3H-Benzo[e]indole-2-carbonyl)-benzoic acid methyl ester]
> 100 | O=C(O)c1ccc(C(=O)c2cc3c(ccc4ccccc43)[nH]2)cc1 [ACT-PFK-111, 4-(3H-Benzo[e]indole-2-carbonyl)-benzoic acid]

System: HCT-116
Test: as above
Assay type: cell-based
Conditions: Homo sapiens, HCT-116
Protocol: as §1

SMILES | IC50 [µM]
O=C(c1cc[n+]([O-])cc1)c1cc2c(ccc3ccccc32)[nH]1 [ACT-PFK-106, (3H-benzo[e]indol-2-yl)-(1-oxy-pyridin-4-yl)-methanone] | 38.5
COC(=O)c1cc(C(=O)c2cc3c(ccc4ccccc43)[nH]2)ccc1OCc1ccccc1 [ACT-PFK-113, 5-(3H-Benzo[e]indole-2-carbonyl)-2-benzyloxy-benzoic acid methyl ester] | > 100
O=C(c1ccc(OCc2ccccc2)c(C(=O)O)c1)c1cc2c(ccc3ccccc32)[nH]1 [ACT-PFK-114, 5-(3H-Benzo[e]indole-2-carbonyl)-2-benzyloxy-benzoic acidmethanone] | > 100

Next, values leading:

IC50 [µM] | SMILES
0.36 | O=C(c1cccc(O)c1)c1cc2c(ccc3ccccc32)[nH]1 [ACT-PFK-103, (3H-Benzo[e]indol-2-yl)-(3-hydroxy-phenyl)-methanone]
> 100 | COC(=O)c1ccc(C(=O)c2cc3c(ccc4ccccc43)[nH]2)cc1 [ACT-PFK-110, 4-(3H-Benzo[e]indole-2-carbonyl)-benzoic acid methyl ester]
63.5 | O=C(O)c1ccc(C(=O)c2cc3c(ccc4ccccc43)[nH]2)cc1 [ACT-PFK-111, 4-(3H-Benzo[e]indole-2-carbonyl)-benzoic acid]

System: Jurkat
Test: as above
Assay type: cell-based
Conditions: Homo sapiens, Jurkat
Protocol: as §1

SMILES | IC50 [µM]
Cc1cc2[nH]c(C(=O)c3ccccc3)cc2c2ccccc12 [ACT-PFK-101, (5-Methyl-3H-benzo[e]indol-2-yl)-phenyl-methanone] | > 100
O=C(c1ccccc1)c1cc2c(ccc3cccnc32)[nH]1 [ACT-PFK-102, Phenyl-(7H-pyrrolo[2,3-h]quinolin-8-yl)-methanone] | > 100
O=C(c1cc[n+]([O-])cc1)c1cc2c(ccc3ccccc32)[nH]1 [ACT-PFK-106, (3H-benzo[e]indol-2-yl)-(1-oxy-pyridin-4-yl)-methanone] | 21
COC(=O)c1cc(C(=O)c2cc3c(ccc4ccccc43)[nH]2)ccc1OCc1ccccc1 [ACT-PFK-113, 5-(3H-Benzo[e]indole-2-carbonyl)-2-benzyloxy-benzoic acid methyl ester] | 28
O=C(c1ccc(OCc2ccccc2)c(C(=O)O)c1)c1cc2c(ccc3ccccc32)[nH]1 [ACT-PFK-114, 5-(3H-Benzo[e]indole-2-carbonyl)-2-benzyloxy-benzoic acidmethanone] | > 100

Next, values leading:

IC50 [µM] | SMILES
0.11 | O=C(c1cccc(O)c1)c1cc2c(ccc3ccccc32)[nH]1 [ACT-PFK-103, (3H-Benzo[e]indol-2-yl)-(3-hydroxy-phenyl)-methanone]
> 100 | COC(=O)c1ccc(C(=O)c2cc3c(ccc4ccccc43)[nH]2)cc1 [ACT-PFK-110, 4-(3H-Benzo[e]indole-2-carbonyl)-benzoic acid methyl ester]
> 100 | O=C(O)c1ccc(C(=O)c2cc3c(ccc4ccccc43)[nH]2)cc1 [ACT-PFK-111, 4-(3H-Benzo[e]indole-2-carbonyl)-benzoic acid]
0.1 | Cc1ccc(C(=O)c2cc3c(ccc4ccccc43)[nH]2)cc1 [ACT-PFK-123, (3H-Benzo[e]indol-2-yl)-p-tolyl-methanone]

System: NCI-H82
Test: as above
Assay type: cell-based
Conditions: Homo sapiens, NCI-H82, read-out: IC50 NCl-H82
Protocol: as §1

SMILES | IC50 [µM]
Cc1cc2[nH]c(C(=O)c3ccccc3)cc2c2ccccc12 [ACT-PFK-101, (5-Methyl-3H-benzo[e]indol-2-yl)-phenyl-methanone] | > 100
O=C(c1ccccc1)c1cc2c(ccc3cccnc32)[nH]1 [ACT-PFK-102, Phenyl-(7H-pyrrolo[2,3-h]quinolin-8-yl)-methanone] | > 100
O=C(c1cc[n+]([O-])cc1)c1cc2c(ccc3ccccc32)[nH]1 [ACT-PFK-106, (3H-benzo[e]indol-2-yl)-(1-oxy-pyridin-4-yl)-methanone] | 15
COC(=O)c1cc(C(=O)c2cc3c(ccc4ccccc43)[nH]2)ccc1OCc1ccccc1 [ACT-PFK-113, 5-(3H-Benzo[e]indole-2-carbonyl)-2-benzyloxy-benzoic acid methyl ester] | > 100
O=C(c1ccc(OCc2ccccc2)c(C(=O)O)c1)c1cc2c(ccc3ccccc32)[nH]1 [ACT-PFK-114, 5-(3H-Benzo[e]indole-2-carbonyl)-2-benzyloxy-benzoic acidmethanone] | > 100

Now from value to molecule:

IC50 [µM] | SMILES
0.405 | O=C(c1cccc(O)c1)c1cc2c(ccc3ccccc32)[nH]1 [ACT-PFK-103, (3H-Benzo[e]indol-2-yl)-(3-hydroxy-phenyl)-methanone]
> 100 | COC(=O)c1ccc(C(=O)c2cc3c(ccc4ccccc43)[nH]2)cc1 [ACT-PFK-110, 4-(3H-Benzo[e]indole-2-carbonyl)-benzoic acid methyl ester]
40.2 | O=C(O)c1ccc(C(=O)c2cc3c(ccc4ccccc43)[nH]2)cc1 [ACT-PFK-111, 4-(3H-Benzo[e]indole-2-carbonyl)-benzoic acid]
0.315 | Cc1ccc(C(=O)c2cc3c(ccc4ccccc43)[nH]2)cc1 [ACT-PFK-123, (3H-Benzo[e]indol-2-yl)-p-tolyl-methanone]

System: Calu-6
Test: as above
Assay type: cell-based
Conditions: Homo sapiens, Calu-6
Protocol: as §1

SMILES | IC50 [µM]
Cc1cc2[nH]c(C(=O)c3ccccc3)cc2c2ccccc12 [ACT-PFK-101, (5-Methyl-3H-benzo[e]indol-2-yl)-phenyl-methanone] | > 100
O=C(c1ccccc1)c1cc2c(ccc3cccnc32)[nH]1 [ACT-PFK-102, Phenyl-(7H-pyrrolo[2,3-h]quinolin-8-yl)-methanone] | > 100
O=C(c1cc[n+]([O-])cc1)c1cc2c(ccc3ccccc32)[nH]1 [ACT-PFK-106, (3H-benzo[e]indol-2-yl)-(1-oxy-pyridin-4-yl)-methanone] | 8.9
COC(=O)c1cc(C(=O)c2cc3c(ccc4ccccc43)[nH]2)ccc1OCc1ccccc1 [ACT-PFK-113, 5-(3H-Benzo[e]indole-2-carbonyl)-2-benzyloxy-benzoic acid methyl ester] | 28.5
O=C(c1ccc(OCc2ccccc2)c(C(=O)O)c1)c1cc2c(ccc3ccccc32)[nH]1 [ACT-PFK-114, 5-(3H-Benzo[e]indole-2-carbonyl)-2-benzyloxy-benzoic acidmethanone] | > 100

Now from value to molecule:

IC50 [µM] | SMILES
0.13 | O=C(c1cccc(O)c1)c1cc2c(ccc3ccccc32)[nH]1 [ACT-PFK-103, (3H-Benzo[e]indol-2-yl)-(3-hydroxy-phenyl)-methanone]
59.5 | COC(=O)c1ccc(C(=O)c2cc3c(ccc4ccccc43)[nH]2)cc1 [ACT-PFK-110, 4-(3H-Benzo[e]indole-2-carbonyl)-benzoic acid methyl ester]
57.5 | O=C(O)c1ccc(C(=O)c2cc3c(ccc4ccccc43)[nH]2)cc1 [ACT-PFK-111, 4-(3H-Benzo[e]indole-2-carbonyl)-benzoic acid]
0.079 | Cc1ccc(C(=O)c2cc3c(ccc4ccccc43)[nH]2)cc1 [ACT-PFK-123, (3H-Benzo[e]indol-2-yl)-p-tolyl-methanone]

Biological target: T1, PFKFB3 (Homo sapiens, UniProt Q16875)
T1 construct: GST
Test: Inhibition of recombinant PFKFB3 kinase activity (ADP Glow assay)
Assay type: biochemical
Conditions: 250 nM analog concentration; read-out: % Inhibition of PFKFB3 Enzymatic Activity
Protocol: PFKFB3 was prepared by expression in E. coli and purified by GST column and column chromatography. […] The recombinant protein was pure and active as determined by the results of a kinase activity assay commercially available (such as ADP Glow® assay, […]). The same assay was used to determine the inhibition of the protein and the results are shown in Table 5 below (IC50 values or percent inhibition at a fixed concentration). Results confirmed that the compounds of the invention have low nanomolar IC50 values, interacting with PFKFB3 and inhibiting its enzymatic activity.

T1 sequence (Q16875 whole entry, species assumed): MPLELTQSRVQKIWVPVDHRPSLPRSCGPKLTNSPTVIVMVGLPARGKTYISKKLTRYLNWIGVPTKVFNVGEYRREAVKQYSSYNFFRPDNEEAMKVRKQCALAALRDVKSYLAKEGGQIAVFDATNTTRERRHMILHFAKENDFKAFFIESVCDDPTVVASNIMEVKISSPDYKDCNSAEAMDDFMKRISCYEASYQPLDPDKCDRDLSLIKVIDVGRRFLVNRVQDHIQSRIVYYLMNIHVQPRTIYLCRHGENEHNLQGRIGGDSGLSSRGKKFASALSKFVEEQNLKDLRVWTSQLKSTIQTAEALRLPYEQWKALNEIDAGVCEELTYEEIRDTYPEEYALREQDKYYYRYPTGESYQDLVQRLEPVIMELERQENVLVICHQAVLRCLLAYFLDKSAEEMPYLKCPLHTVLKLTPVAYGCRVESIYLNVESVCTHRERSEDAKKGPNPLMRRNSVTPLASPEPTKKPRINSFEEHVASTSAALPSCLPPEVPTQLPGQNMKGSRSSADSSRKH

inhibition at 0.25 µM [%] | SMILES
0 | O=C(c1ccc(O)cc1)c1cc2c(ccc3ccccc32)[nH]1 [ACT-PFK-100, (3H-Benzo[e]indol-2-yl)-(4-hydroxy-phenyl)-methanone]
54.3 | O=C(O)c1ccc(C(=O)c2cc3c(ccc4ccccc43)[nH]2)cc1 [ACT-PFK-111, 4-(3H-Benzo[e]indole-2-carbonyl)-benzoic acid]
19.4 | Cc1ccc(C(=O)c2cc3c(ccc4ccccc43)[nH]2)cc1 [ACT-PFK-123, (3H-Benzo[e]indol-2-yl)-p-tolyl-methanone]
